Data taken from patent publication US12365696B2, “Small-molecule focal adhesion kinase (FAK) inhibitors” (DANA-FARBER CANCER INSTITUTE, INC., priority 2019, dated 2025).
Read-outs that look alike come from different tables or passages of the source.

Key:
Experiment in all cases: KINOMEscan
Assay type in all cases: binding
PIM3 = PIM3 (Homo sapiens (Human), UniProt Q86V86); settings: PIM3, 10000 nM; read-out: Percent Control
EPHA5 = EPHA5 (Homo sapiens (Human), UniProt P54756); settings: EPHA5, 10000 nM; read-out: Percent Control
FLT3(R834Q) = FLT3(R834Q) (Homo sapiens (Human), UniProt P36888, R834Q); settings: 10000 nM, read-out: Percent Control
MET(Y1235D) = MET(Y1235D) (Homo sapiens (Human), UniProt P08581, Y1235D); settings: 10000 nM, read-out: Percent Control
Chain of MET(Y1235D) (P08581 25-1390 Y1235D): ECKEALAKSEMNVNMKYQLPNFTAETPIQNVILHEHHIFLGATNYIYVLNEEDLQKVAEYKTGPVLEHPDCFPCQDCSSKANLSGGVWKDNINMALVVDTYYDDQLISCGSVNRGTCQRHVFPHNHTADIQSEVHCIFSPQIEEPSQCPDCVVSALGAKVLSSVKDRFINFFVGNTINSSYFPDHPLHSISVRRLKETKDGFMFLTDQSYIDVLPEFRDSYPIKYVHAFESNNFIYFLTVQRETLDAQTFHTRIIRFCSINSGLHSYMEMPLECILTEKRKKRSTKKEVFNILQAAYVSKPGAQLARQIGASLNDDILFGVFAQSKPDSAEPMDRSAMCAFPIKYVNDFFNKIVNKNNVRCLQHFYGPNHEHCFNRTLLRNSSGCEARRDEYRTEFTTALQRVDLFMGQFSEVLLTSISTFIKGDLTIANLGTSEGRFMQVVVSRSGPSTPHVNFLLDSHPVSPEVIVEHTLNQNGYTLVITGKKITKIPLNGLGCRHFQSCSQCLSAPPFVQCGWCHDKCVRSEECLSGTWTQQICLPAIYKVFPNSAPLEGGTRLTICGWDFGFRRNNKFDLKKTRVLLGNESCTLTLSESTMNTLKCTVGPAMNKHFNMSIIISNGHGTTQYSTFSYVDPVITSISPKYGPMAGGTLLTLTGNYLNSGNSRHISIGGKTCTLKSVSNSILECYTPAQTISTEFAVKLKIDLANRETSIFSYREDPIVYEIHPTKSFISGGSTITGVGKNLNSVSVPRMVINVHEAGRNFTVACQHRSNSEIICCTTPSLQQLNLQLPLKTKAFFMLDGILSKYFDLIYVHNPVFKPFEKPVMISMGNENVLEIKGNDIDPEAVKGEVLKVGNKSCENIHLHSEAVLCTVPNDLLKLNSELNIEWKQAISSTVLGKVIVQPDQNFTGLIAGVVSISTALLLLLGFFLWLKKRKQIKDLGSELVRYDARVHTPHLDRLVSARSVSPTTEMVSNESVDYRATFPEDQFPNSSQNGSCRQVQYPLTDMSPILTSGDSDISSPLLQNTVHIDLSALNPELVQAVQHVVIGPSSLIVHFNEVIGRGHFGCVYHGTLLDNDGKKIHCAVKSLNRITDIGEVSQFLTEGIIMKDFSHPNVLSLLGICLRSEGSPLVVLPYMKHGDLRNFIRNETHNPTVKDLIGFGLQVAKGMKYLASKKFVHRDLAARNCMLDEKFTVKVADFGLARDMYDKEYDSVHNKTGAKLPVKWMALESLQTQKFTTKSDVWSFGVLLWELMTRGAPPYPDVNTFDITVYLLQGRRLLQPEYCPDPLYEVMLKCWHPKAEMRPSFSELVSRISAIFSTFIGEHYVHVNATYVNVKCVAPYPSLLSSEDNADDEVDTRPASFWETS

ACVR1 = ACVR1 (Homo sapiens (Human), UniProt Q04771); settings: ACVR1, 10000 nM; read-out: Percent Control
CDC2L1 = CDC2L1 (Homo sapiens (Human), UniProt P21127); settings: CDC2L1, 10000 nM; read-out: Percent Control
MEK3 = MEK3 (Homo sapiens (Human), UniProt P46734); settings: MEK3, 10000 nM; read-out: Percent Control
TXK = TXK (Homo sapiens (Human), UniProt P42681); settings: 10000 nM, read-out: Percent Control
SIK2 = SIK2 (Homo sapiens (Human), UniProt Q9H0K1); settings: SIK2, 10000 nM; read-out: Percent Control
MYLK4 = MYLK4 (Homo sapiens (Human), UniProt Q86YV6); settings: MYLK4, 10000 nM; read-out: Percent Control
KIT = KIT (Homo sapiens (Human), UniProt P10721); settings: 10000 nM, read-out: Percent Control
PIK3CA(M1043I) = PIK3CA(M1043I) (Homo sapiens (Human), UniProt P42336, M1043I); settings: 10000 nM, read-out: Percent Control
PCTK2 = PCTK2 (Homo sapiens (Human), UniProt Q00537); settings: PCTK2, 10000 nM; read-out: Percent Control
WNK4 = WNK4 (Homo sapiens (Human), UniProt Q96J92); settings: WNK4, 10000 nM; read-out: Percent Control
FLT4 = FLT4 (Homo sapiens (Human), UniProt P35916); settings: FLT4, 10000 nM; read-out: Percent Control
PKNB(M. tuberculosis) = PKNB(M. tuberculosis) (Mycobacterium tuberculosis (strain ATCC 25618 / H37Rv), UniProt P9WI81); settings: read-out: Percent Control
CAMK4 = CAMK4 (Homo sapiens (Human), UniProt Q16566); settings: CAMK4, 10000 nM; read-out: Percent Control
CDK5 = CDK5 (Homo sapiens (Human), UniProt Q00535); settings: CDK5, 10000 nM; read-out: Percent Control
Chain of CDK5 (Q00535 whole entry): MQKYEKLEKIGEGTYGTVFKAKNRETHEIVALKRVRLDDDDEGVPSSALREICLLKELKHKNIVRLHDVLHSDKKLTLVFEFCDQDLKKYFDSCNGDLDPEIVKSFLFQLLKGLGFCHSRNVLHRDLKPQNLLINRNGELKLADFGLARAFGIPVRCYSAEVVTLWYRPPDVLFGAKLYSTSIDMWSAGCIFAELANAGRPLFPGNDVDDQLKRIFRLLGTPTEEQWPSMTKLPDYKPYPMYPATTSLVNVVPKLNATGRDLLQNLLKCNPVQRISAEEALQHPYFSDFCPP

ARK5 = ARK5 (Homo sapiens (Human), UniProt O60285); settings: ARK5, 10000 nM; read-out: Percent Control
FLT3(ITD, D835V) = settings: 10000 nM
MELK = MELK (Homo sapiens (Human), UniProt Q14680); settings: 10000 nM, read-out: Percent Control
PRKR = PRKR (Homo sapiens (Human), UniProt P19525); settings: 10000 nM, read-out: Percent Control
Chain of PRKR (P19525 whole entry): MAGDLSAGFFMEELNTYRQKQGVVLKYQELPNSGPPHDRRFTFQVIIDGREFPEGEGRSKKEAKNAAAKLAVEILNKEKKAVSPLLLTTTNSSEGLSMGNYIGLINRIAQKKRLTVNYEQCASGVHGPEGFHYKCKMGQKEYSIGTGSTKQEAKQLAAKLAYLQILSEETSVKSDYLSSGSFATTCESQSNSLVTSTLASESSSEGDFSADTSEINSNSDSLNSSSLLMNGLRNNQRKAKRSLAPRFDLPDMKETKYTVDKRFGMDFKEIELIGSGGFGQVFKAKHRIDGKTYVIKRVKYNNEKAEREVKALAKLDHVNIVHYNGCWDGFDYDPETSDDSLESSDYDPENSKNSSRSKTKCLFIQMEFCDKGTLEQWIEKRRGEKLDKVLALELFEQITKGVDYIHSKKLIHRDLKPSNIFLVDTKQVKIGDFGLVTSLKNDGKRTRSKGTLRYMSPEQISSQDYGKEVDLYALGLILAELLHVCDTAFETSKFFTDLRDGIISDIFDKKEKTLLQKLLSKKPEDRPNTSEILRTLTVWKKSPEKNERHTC

FGFR4 = FGFR4 (Homo sapiens (Human), UniProt P22455); settings: FGFR4, 10000 nM; read-out: Percent Control
Chain of FGFR4 (P22455 22-802): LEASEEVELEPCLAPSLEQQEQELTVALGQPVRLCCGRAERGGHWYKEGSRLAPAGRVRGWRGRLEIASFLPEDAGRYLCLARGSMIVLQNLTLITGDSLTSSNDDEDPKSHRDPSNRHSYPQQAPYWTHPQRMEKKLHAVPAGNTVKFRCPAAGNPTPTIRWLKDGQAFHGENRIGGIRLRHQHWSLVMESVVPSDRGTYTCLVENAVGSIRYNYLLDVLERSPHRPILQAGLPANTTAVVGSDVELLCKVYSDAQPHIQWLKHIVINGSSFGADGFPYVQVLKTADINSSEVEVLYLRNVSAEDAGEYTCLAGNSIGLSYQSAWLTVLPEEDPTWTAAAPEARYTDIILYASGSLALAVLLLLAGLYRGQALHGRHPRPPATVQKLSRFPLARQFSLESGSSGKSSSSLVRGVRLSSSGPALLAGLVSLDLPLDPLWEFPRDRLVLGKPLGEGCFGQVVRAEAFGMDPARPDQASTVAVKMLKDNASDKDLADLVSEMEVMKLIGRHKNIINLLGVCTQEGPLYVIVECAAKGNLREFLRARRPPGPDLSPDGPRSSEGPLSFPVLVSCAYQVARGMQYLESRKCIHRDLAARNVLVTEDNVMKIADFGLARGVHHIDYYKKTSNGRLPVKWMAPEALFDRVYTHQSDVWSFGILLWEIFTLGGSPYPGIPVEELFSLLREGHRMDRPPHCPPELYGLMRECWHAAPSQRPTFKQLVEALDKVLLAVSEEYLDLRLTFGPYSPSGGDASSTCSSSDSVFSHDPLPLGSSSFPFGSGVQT

SIK = SIK (Homo sapiens (Human), UniProt P57059); settings: 10000 nM, read-out: Percent Control
LATS2 = LATS2 (Homo sapiens (Human), UniProt Q9NRM7); settings: LATS2, 10000 nM; read-out: Percent Control
FGFR3 = FGFR3 (Homo sapiens (Human), UniProt P22607); settings: FGFR3, 10000 nM; read-out: Percent Control
Chain of FGFR3 (P22607 23-806): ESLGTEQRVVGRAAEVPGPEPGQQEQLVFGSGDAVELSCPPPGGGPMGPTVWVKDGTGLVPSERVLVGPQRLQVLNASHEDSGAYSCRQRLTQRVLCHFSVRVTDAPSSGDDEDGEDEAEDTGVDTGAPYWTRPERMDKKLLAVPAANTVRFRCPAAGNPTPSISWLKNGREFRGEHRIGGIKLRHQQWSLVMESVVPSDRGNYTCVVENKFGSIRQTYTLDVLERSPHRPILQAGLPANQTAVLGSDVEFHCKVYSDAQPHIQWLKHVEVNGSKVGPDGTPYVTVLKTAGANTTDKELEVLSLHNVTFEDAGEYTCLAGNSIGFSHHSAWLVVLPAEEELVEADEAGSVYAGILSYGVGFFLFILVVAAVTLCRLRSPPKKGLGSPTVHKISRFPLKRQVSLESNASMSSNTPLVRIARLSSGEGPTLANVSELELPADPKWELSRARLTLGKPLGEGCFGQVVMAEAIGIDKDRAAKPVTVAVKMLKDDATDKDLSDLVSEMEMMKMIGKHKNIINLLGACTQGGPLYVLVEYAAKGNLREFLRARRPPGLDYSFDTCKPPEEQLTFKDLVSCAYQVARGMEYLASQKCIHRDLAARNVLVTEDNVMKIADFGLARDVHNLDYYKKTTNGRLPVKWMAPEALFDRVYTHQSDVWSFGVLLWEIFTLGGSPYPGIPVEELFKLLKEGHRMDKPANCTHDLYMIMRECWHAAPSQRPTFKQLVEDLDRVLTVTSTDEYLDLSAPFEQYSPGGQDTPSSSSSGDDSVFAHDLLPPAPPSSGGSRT

FGFR1 = FGFR1 (Homo sapiens (Human), UniProt P11362); settings: FGFR1, 10000 nM; read-out: Percent Control
MAP4K3 = MAP4K3 (Homo sapiens (Human), UniProt Q8IVH8); settings: MAP4K3, 10000 nM; read-out: Percent Control
Chain of MAP4K3 (Q8IVH8 whole entry): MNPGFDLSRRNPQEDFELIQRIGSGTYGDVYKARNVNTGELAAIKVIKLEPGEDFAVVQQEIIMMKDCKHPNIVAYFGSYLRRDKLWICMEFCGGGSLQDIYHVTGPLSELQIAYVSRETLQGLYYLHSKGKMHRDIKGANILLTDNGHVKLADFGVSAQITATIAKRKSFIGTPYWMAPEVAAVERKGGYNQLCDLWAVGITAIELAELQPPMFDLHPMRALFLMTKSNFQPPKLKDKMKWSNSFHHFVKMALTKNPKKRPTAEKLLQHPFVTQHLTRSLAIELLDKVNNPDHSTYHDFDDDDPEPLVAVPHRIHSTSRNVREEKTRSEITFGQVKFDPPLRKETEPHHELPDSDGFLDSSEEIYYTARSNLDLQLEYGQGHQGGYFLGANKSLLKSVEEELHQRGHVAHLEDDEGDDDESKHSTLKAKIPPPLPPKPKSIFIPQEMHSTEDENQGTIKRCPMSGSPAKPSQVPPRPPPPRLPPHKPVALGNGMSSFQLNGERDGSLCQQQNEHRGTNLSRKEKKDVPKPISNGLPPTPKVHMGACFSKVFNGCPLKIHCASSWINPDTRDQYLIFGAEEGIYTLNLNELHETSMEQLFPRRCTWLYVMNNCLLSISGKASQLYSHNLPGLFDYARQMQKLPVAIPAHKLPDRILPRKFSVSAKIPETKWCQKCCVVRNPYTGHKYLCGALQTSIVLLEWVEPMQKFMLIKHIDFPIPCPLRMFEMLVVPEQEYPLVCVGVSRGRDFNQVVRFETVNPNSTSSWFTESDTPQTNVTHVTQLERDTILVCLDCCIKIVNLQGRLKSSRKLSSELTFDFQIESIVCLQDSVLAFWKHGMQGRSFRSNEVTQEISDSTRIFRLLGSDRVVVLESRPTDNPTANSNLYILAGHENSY

MEK4 = MEK4 (Homo sapiens (Human), UniProt P45985); settings: MEK4, 10000 nM; read-out: Percent Control
Chain of MEK4 (P45985 whole entry): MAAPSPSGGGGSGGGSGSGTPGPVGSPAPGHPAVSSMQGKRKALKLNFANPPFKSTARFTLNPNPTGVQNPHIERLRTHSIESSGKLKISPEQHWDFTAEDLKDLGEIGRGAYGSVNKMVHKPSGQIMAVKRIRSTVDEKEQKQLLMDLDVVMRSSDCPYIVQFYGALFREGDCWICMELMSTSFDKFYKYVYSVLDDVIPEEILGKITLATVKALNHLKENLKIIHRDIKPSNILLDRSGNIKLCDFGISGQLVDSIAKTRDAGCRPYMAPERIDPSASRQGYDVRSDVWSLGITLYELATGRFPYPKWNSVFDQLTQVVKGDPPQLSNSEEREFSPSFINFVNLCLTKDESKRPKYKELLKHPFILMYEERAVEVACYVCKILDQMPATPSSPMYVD

HPK1 = HPK1 (Homo sapiens (Human), UniProt Q92918); settings: HPK1, 10000 nM; read-out: Percent Control
MINK = MINK (Homo sapiens (Human), UniProt Q8N4C8); settings: 10000 nM, read-out: Percent Control
EPHA3 = EPHA3 (Homo sapiens (Human), UniProt P29320); settings: EPHA3, 10000 nM; read-out: Percent Control
RDGFRB = RDGFRB (Homo sapiens (Human), UniProt P09619); settings: 10000 nM, read-out: Percent Control

| SMILES | remaining binding at 10 µM (PIM3) [%] | remaining binding at 10 µM (EPHA5) [%] | remaining binding at 10 µM (FLT3(R834Q)) [%] | remaining binding at 10 µM (MET(Y1235D)) [%] | remaining binding at 10 µM (ACVR1) [%] | remaining binding at 10 µM (CDC2L1) [%] | remaining binding at 10 µM (MEK3) [%] | remaining binding at 10 µM (TXK) [%] | remaining binding at 10 µM (SIK2) [%] | remaining binding at 10 µM (MYLK4) [%] | remaining binding at 10 µM (KIT) [%] | remaining binding at 10 µM (PCTK2) [%] | remaining binding at 10 µM (WNK4) [%] | remaining binding at 10 µM (FLT4) [%] | remaining binding at 10 µM (CAMK4) [%] | remaining binding at 10 µM (CDK5) [%] | remaining binding at 10 µM (ARK5) [%] | Percent Control (FLT3(ITD, D835V)) [%] | remaining binding at 10 µM (MELK) [%] | remaining binding at 10 µM (PRKR) [%] | also measured |
| --- | --- | --- | --- | --- | --- | --- | --- | --- | --- | --- | --- | --- | --- | --- | --- | --- | --- | --- | --- | --- | --- |
| COc1cc(N2CCC(N3CCN(C)CC3)CC2)ccc1Nc1ncc2c(n1)N(C)c1sc(C)nc1C(=O)N2 [Compound 3, 6-((2-methoxy-4-(4-(4-methylpiperazin-1-yl)piperidin-1-yl)phenyl)amino)-2,4-dimethyl-4,9-dihydro-10H-pyrimido[5,4-b]thiazolo[5,4-e][1,4]diazepin-10-one] | 70 | 65 | 100 | 90 | 93 | 74 | 92 | 73 | 86 | 77 | 54 | 76 | 100 | 92 | 98 | 71 | 86 | 100 | 99 | 100 | remaining binding at 10 µM (PIK3CA(M1043I); PIK3CA(M1043I)): 87%; remaining binding at 10 µM (PKNB(M. tuberculosis)): 91%; remaining binding at 10 µM (FGFR4): 90%; remaining binding at 10 µM (SIK): 69%; remaining binding at 10 µM (LATS2): 100%; remaining binding at 10 µM (FGFR3): 92%; remaining binding at 10 µM (FGFR1): 75%; remaining binding at 10 µM (MAP4K3): 100%; remaining binding at 10 µM (MEK4): 100%; remaining binding at 10 µM (HPK1): 68%; remaining binding at 10 µM (MINK): 100%; remaining binding at 10 µM (EPHA3): 99%; remaining binding at 10 µM (RDGFRB; RDGFRB): 50% |
| COc1cc(N2CCC(N3CCN(C)CC3)CC2)ccc1Nc1ncc2c(n1)N(C)c1sc(C)nc1C(=O)N2C [Compound 5, 6-((2-methoxy-4-(4-(4-methylpiperazin-1-yl)piperidin-1-yl)phenyl)amino)-2,4,9-trimethyl-4,9-dihydro-10H-pyrimido[5,4-b]thiazolo[5,4-e][1,4]diazepin-10-one] | 100 | 95 | 81 | 98 | 93 | 100 | 100 | 99 | 99 | 100 | 100 | 100 | 100 | 100 | 100 | 98 | 94 | 100 | 88 | 65 | remaining binding at 10 µM (PIK3CA(M1043I); PIK3CA(M1043l)): 100%; remaining binding at 10 µM (PKNB(M. tuberculosis); PKNB(M. tuberculosis), 10000 nM): 98%; remaining binding at 10 µM (FGFR4): 88%; remaining binding at 10 µM (SIK): 100%; remaining binding at 10 µM (LATS2): 98%; remaining binding at 10 µM (FGFR3): 98%; remaining binding at 10 µM (FGFR1): 90%; remaining binding at 10 µM (MAP4K3): 100%; remaining binding at 10 µM (MEK4): 100%; remaining binding at 10 µM (HPK1): 100%; remaining binding at 10 µM (MINK): 100%; remaining binding at 10 µM (EPHA3): 100%; remaining binding at 10 µM (RDGFRB; PDGFRB): 100% |
